US20260347338A1, “PYRIMIDINE/PYRIDINE DERIVATIVES OR SALTS THEREOF AND PHARMACEUTICAL COMPOSITIONS COMPRISING THE SAME” (YUHAN CORPORATION, priority 2023, published 2026)
Where a name gives a salt, the structure may show the parent alone.

The compounds below were run against T1, human recombinant HPK1 (Homo sapiens, UniProt Q92918) (assay: Inhibitory activity against human recombinant HPK1 (TR-FRET)). Conditions: ULight-p70S6K peptide, ATP at Km, room temperature, 1 hour, 0.32 to 1000 nM compound.
T1 construct: purchased BPS Bioscience
Type: biochemical
Description: Test Example: Evaluation of Inhibitory Activity Against Human Recombinant HPK1
The inhibitory activity against human recombinant HPK1 was evaluated using the Time-Resolved Fluorescence Resonance Energy Transfer (TR-FRET) technology of Perkin-Elmer. The test compound was prepared as a 20 mM stock solution with dimethyl sulfoxide (DMSO), serially diluted in a buffer solution, and used at final compound concentrations of 0.32 to 1000 nM. The evaluation of inhibitory activity was carried out at room temperature, using recombinant human HPK1 (BPS Bioscience). Briefly, recombinant human HPK1, serially diluted each test compound, ULight-p70S6K peptide substrate (PerkinElmer), and ATP at each concentration (Km and final concentration) were added to a kinase buffer solution (50 mM HEPES pH 7.4, 10 mM MgCl2, 1 mM EGTA, 3 mM MnCl2, 2 mM DTT, and 0.01% Tween-20). The resulting mixture was added to each well of a 384-well plate (Optiplate™ 384, white, PerkinElmer). The enzyme reaction was carried out at room temperature for 1 hour. After the reaction was suspended by adding 4 μL of a stop solution (10 mM EDTA) thereto, the mixture was stirred for 1 minute and then a detection solution containing Europium-labeled anti-phosphopeptide antibody (final concentration: 2 nM, PerkinElmer) was added thereto. The signals of TR-FRET at excitation wavelength (320 nm) and emission wavelength (665 nm) were detected using a microplate reader (Envision Multilabel Reader, Perkin-Elmer). Inhibition by the test compound was measured as % inhibition in the signals, compared to the control group treated with DMSO only. The IC50 value of each compound was calculated using the GraphPad Prism program (GraphPad Software, Inc., San Diego, CA, USA). The IC50 values of test compounds for inhibitory activity against HPK1 were classified as follows: • A: IC50≤10 nM • B: 10 nM<IC50≤50 nM • C: 50 nM<IC50≤100 nM • D: IC50>100 nM

T1 sequence (Q92918 whole entry): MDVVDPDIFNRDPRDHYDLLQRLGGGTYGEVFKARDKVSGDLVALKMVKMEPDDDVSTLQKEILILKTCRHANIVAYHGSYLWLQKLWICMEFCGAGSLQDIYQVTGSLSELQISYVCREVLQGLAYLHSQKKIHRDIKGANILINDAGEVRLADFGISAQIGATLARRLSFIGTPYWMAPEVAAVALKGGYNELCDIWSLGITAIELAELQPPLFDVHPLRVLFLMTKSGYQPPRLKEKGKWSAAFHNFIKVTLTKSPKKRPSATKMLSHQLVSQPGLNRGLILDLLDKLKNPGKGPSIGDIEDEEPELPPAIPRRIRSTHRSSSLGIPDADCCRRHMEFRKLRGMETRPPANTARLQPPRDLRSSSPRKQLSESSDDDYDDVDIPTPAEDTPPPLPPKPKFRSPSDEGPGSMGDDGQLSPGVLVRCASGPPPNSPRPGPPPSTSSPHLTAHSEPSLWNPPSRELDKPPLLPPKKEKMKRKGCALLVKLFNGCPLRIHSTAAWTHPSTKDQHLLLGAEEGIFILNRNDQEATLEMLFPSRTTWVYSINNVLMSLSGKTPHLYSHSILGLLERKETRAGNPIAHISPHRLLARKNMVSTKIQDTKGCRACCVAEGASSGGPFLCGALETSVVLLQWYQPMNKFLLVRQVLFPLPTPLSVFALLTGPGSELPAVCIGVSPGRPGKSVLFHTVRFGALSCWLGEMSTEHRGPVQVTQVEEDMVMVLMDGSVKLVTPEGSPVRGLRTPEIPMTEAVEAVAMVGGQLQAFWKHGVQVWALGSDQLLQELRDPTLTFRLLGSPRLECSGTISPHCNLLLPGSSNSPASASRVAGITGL

Compound	IC50
COc1cccc(F)c1-c1nccc(Nc2cc(N3CCC(CCN(C)C)CC3)c(-c3ccc(N4CCOCC4)nc3)cn2)n1 [Example 149, 4-(4-(2-(dimethylamino)ethyl)piperidin-1-yl)-N-(2-(2-fluoro-6-methoxyphenyl)pyrimidin-4-yl)-6′-morpholino-[3,3′-bipyridin]-6-amine]	≤ 10 nM
COc1cccc(F)c1-c1nccc(Nc2cc(N3CCC(CCN(C)C)CC3)c(-c3cnn(C4CCOCC4)c3)cn2)n1 [Example 64, N-(4-(4-(2-(dimethylamino)ethyl)piperidin-1-yl)-5-(1-(tetrahydro-2H-pyran-4-yl)-1H-pyrazol-4-yl)pyridin-2-yl)-2-(2-fluoro-6-methoxyphenyl)pyrimidin-4-amine]	≤ 10 nM
COc1cccc(F)c1-c1nccc(Nc2cc(N3CCC[C@H](O)C3)c(-c3ccc(C4CCOCC4)cc3)cn2)n1 [Example 18, (S)-1-(2-((2-(2-fluoro-6-methoxyphenyl)pyrimidin-4-yl)amino)-5-(4-(tetrahydro-2H-pyran-4-yl)phenyl)pyridin-4-yl)piperidin-3-ol]	≤ 10 nM
COc1cccc(F)c1-c1nc(Nc2cc(N3CCC[C@H](N)C3)c(-c3cnn(C4CCOCC4)c3)cn2)ccc1C(N)=O [Example 129, 6-((4-((S)-3-aminopiperidin-1-yl)-5-(1-(tetrahydro-2H-pyran-4-yl)-1H-pyrazol-4-yl)pyridin-2-yl)amino)-2-(2-fluoro-6-methoxyphenyl)nicotinamide hydrochloride]	≤ 10 nM
COc1cc(F)cc(F)c1-c1nccc(Nc2cc(N3CCC[C@H](O)C3)c(C#Cc3cnn(CC(F)F)c3)cn2)n1 [Example 219, (S)-1-(2-((2-(2,4-difluoro-6-methoxyphenyl)pyrimidin-4-yl)amino)-5-((1-(2,2-difluoroethyl)-1H-pyrazol-4-yl)ethynyl)pyridin-4-yl)piperidin-3-ol]	≤ 10 nM
COc1cccc(F)c1-c1nc(Nc2cc(N3CCC[C@H](O)C3)c(C(=O)N[C@@H]3CCN(C)C3)cn2)ccc1[N+](=O)[O-] [Example 203, 6-((6-(2-fluoro-6-methoxyphenyl)-5-nitropyridin-2-yl)amino)-4-((S)-3-hydroxypiperidin-1-yl)-N-((R)-1-methylpyrrolidin-3-yl)nicotinamide]	≤ 10 nM
COc1cc(F)cc(F)c1-c1nccc(Nc2cc(N3CC[C@@H](O)[C@H](N)C3)c(-c3cnn(C(F)F)c3)cn2)n1 [Example 213, (3R,4R)-3-amino-1-(2-((2-(2,4-difluoro-6-methoxyphenyl)pyrimidin-4-yl)amino)-5-(1-(difluoromethyl)-1H-pyrazol-4-yl)pyridin-4-yl)piperidin-4-ol hydrochloride]	≤ 10 nM

Results, then the compound that gave them:

IC50	Compound
≤ 10 nM	COc1cc(F)cc(F)c1-c1nccc(Nc2cc(N3C[C@@H](N)C[C@H](F)C3)c(-c3cnn(C(C)C)c3)cn2)n1 [Example 336, N-(4-((3S,5S)-3-amino-5-fluoropiperidin-1-yl)-5-(1-isopropyl-1H-pyrazol-4-yl)pyridin-2-yl)-2-(2,4-difluoro-6-methoxyphenyl)pyrimidin-4-amine]
≤ 10 nM	COc1cccc(F)c1-c1nccc(Nc2cc(N3CCC[C@H](N)C3)c(-c3cnc4c(c3)CCC(=O)N4)cn2)n1 [Example 276, (S)-6-(4-(3-aminopiperidin-1-yl)-6-((2-(2-fluoro-6-methoxyphenyl)pyrimidin-4-yl)amino)pyridin-3-yl)-3,4-dihydro-1,8-naphthyridin-2(1H)-one hydrochloride]
≤ 10 nM	COc1cccc(F)c1-c1nccc(Nc2cc(N3CCC[C@H](C)C3)c(-c3cnn(C(F)F)c3)cn2)n1 [Example 271, (S)-N-(5-(1-(difluoromethyl)-1H-pyrazol-4-yl)-4-(3-methylpiperidin-1-yl)pyridin-2-yl)-2-(2-fluoro-6-methoxyphenyl)pyrimidin-4-amine]
